Tested on: pLucSRE
Assay: c-fos promoter-driven luciferase reporter assay
Type: cell-based
Conditions: transient transfection in mouse fibroblasts
Description: FIGS. 3A-3D. Inhibition of Stat3-mediated gene expression by PLATINUM-401. (FIG. 3A) and (FIG. 3B) v-Src-transformed mouse fibroblasts that stably express Stat3-dependent (NIH3T3/v-Src/pLucTKS3) and Stat3-independent (NIH3T3/v-Src/pRLSRE) luciferase reporters or β-galactosidase (β-gal), as well as normal mouse fibroblast (NIH3T3) transiently transfected with pLucTKS3, pGL2-VEGF-Luc, NFkB-Luc or pLucSRE together with or without v-Src were treated with or without PLATINUM-401 for 48 h. Cytosolic extracts were then prepared from cells for luciferase and […] activities measurements. […]
Cell proliferation and TUNEL assays—Proliferating cells were first treated with or without PLATINUM-401 for up to 48 h. A portion of cells were harvested for BrdU incorporation following the manufacturer's (BD Biosciences Pharmingen, San Diego, Calif.) instructions and analyzed by flow cytometry. Harvested cells were also analyzed for apoptosis via detection of TdT-mediated dUTP nick-end labeling (TUNEL) assay using Apoptosis Detection Systems Fluorescein according to the manufacturer's (Roche, Indianapolis, Ind.) instructions. […]
To further investigate the activities of PLATINUM-401, the inventors treated malignant cells and measured effects on Stat3 signaling. […]

With CC(O)CN1CCN(CC(C)O)CC1 (stereo not shown) [PLATINUM-401] the “induction of c-fos promoter-driven luciferase reporter activity” value was “no inhibitory effects”.

From patent US11571418B2, “Platinum compounds that inhibit constitutive STAT3 signaling and induce cell cycle arrest and apoptosis of malignant cells” (H. LEE MOFFITT CANCER CENTER AND RESEARCH INSTITUTE, INC., priority 2011, dated 2023)
